Source: US20100267561A1, “HERBICIDAL PYRIDAZINONE DERIVATIVES” (priority 2007, published 2010)

What was measured:
Assay type in all cases: in vivo
wild oat (Avena fatua) = assay: Test B pre-/postemergence plant response; conditions: Preemergence
Method in brief: (§1)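 Preemergence and postemergence (plants 2-18 cm, 1- to 4-leaf stage) applications used test chemicals in a non-phytotoxic solvent with surfactant. Plants were held in a greenhouse 13 to 15 days, then rated visually against controls on a 0-100 scale (0 no effect, 100 complete control).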

[1] = test system: yellow nutsedge (Cyperus esculentus); assay: Test B pre-/postemergence plant response; conditions: Preemergence
Method in brief: as §1

[2] = test system: wheat (Triticum aestivum); assay: Test B pre-/postemergence plant response; conditions: Preemergence; for Wheat plant response rating: scale 0 to 100
Method in brief: as §1

[3] = test system: morningglory (Ipomoea coccinea); assay: Test A pre-/postemergence plant response
Method in brief: (§2)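 Both pre- and postemergence treatment given concurrently; postemergence seedlings measured 2–10 cm at the one- to two-leaf stage. Visual injury, 0–100 scale versus untreated, at ~10 days.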

[4] = test system: large crabgrass (Digitaria sanguinalis); assay: Test A pre-/postemergence plant response
Method in brief: as §2

corn (Zea mays) = assay: Test A pre-/postemergence plant response
Method in brief: as §2

[5] = test system: barnyardgrass (Echinochloa crus-galli); assay: Test A pre-/postemergence plant response
Method in brief: as §2

[6] = test system: giant foxtail (Setaria faberi); assay: Test A pre-/postemergence plant response
Method in brief: as §2

[7] = test system: velvetleaf (Abutilon theophrasti); assay: Test A pre-/postemergence plant response
Method in brief: as §2

[8] = 16 g ai/ha, scale 0 to 100 (0 no effect, 100 complete control)
[9] = 31 g ai/ha, scale 0 to 100 (0 no effect, 100 complete control)
[10] = 62 g ai/ha, 0 to 100 scale, 0 no effect, 100 complete control
[11] = Postemergence, 31 g ai/ha, 0 to 100 scale, 0 no effect, 100 complete control
[12] = Postemergence, 125 g ai/ha, 0 to 100 scale, 0 no effect, 100 complete control
[13] = Preemergence, 31 g ai/ha, 0 to 100 scale, 0 is no effect, 100 is complete control
[14] = Preemergence, 125 g ai/ha, 0 to 100 scale (0 no effect, 100 complete control)

Structure (SMILES)	Plant response rating, Oat, Wild (wild oat (Avena fatua); [9])	Plant response rating, Oat, Wild (wild oat (Avena fatua); 62 g ai/ha, scale 0 to 100)	Oat, Wild plant response rating (wild oat (Avena fatua); 8 g ai/ha, scale 0 to 100)	Plant response rating, Nutsedge, Yellow [1, 9]	Plant response rating, Nutsedge, Yellow ([1]; 62 g ai/ha, scale 0 to 100)	Nutsedge, Yellow plant response rating ([1]; 8 g ai/ha, scale 0 to 100)	Plant response rating, Wheat [2, 9]	Plant response rating, Wheat [2, 10]	Plant response rating, Morningglory [3, 11]	Plant response rating, Morningglory [3, 12]	Plant response rating, Morningglory [3, 13]	Plant response rating, Morningglory [3, 14]	Plant response rating, Crabgrass, Large [4, 11]	Plant response rating, Crabgrass, Large [4, 12]	Plant response rating, Crabgrass, Large [4, 13]	Plant response rating, Crabgrass, Large [4, 14]	Plant response rating, Corn (corn (Zea mays); [11])	Plant response rating, Corn (corn (Zea mays); [12])	Plant response rating, Corn (corn (Zea mays); [13])	Plant response rating, Corn (corn (Zea mays); [14])	further results
Cc1ccc(-c2ccc(Cl)cc2)cc1-c1c(O)cnn(C)c1=O [Compound 46]	0	35	0	0	0	0	0	0	0	0	0	0	0	40	10	90	20	50	0	0	Plant response rating, Oat, Wild (wild oat (Avena fatua); [8]): 0; Plant response rating, Nutsedge, Yellow [1, 8]: 0; Plant response rating, Wheat [2, 8]: 0; Wheat plant response rating ([2]; 8 g ai/ha): 0; Plant response rating, Barnyardgrass [5, 11]: 0; Plant response rating, Barnyardgrass [5, 12]: 50; Plant response rating, Barnyardgrass [5, 13]: 40; Plant response rating, Barnyardgrass [5, 14]: 100; Plant response rating, Foxtail, Giant [6, 11]: 20; Plant response rating, Foxtail, Giant [6, 12]: 60; Plant response rating, Foxtail, Giant [6, 13]: 50; Plant response rating, Foxtail, Giant [6, 14]: 100; Plant response rating, Velvetleaf [7, 11]: 0; Plant response rating, Velvetleaf [7, 12]: 0; Plant response rating, Velvetleaf [7, 13]: 0; Plant response rating, Velvetleaf [7, 14]: 0
Cc1cc(-c2ccc(Cl)cc2)nn1-c1c(OS(=O)(=O)c2cccc3ccccc23)cnn(C)c1=O [Compound 47]	0	70	0	0	0	0	0	20	0	0	0	0	10	50	10	90	0	10	0	40	Plant response rating, Oat, Wild (wild oat (Avena fatua); [8]): 0; Plant response rating, Nutsedge, Yellow [1, 8]: 0; Plant response rating, Wheat [2, 8]: 0; Wheat plant response rating ([2]; 8 g ai/ha): 0; Plant response rating, Barnyardgrass [5, 11]: 0; Plant response rating, Barnyardgrass [5, 12]: 40; Plant response rating, Barnyardgrass [5, 13]: 20; Plant response rating, Barnyardgrass [5, 14]: 80; Plant response rating, Foxtail, Giant [6, 11]: 10; Plant response rating, Foxtail, Giant [6, 12]: 60; Plant response rating, Foxtail, Giant [6, 13]: 70; Plant response rating, Foxtail, Giant [6, 14]: 90; Plant response rating, Velvetleaf [7, 11]: 0; Plant response rating, Velvetleaf [7, 12]: 0; Plant response rating, Velvetleaf [7, 13]: 0; Plant response rating, Velvetleaf [7, 14]: 0
Cc1cc(-c2ccc(Cl)cc2)nn1-c1c(OS(=O)(=O)C(C)C)cnn(C)c1=O [Compound 50]	40	70	20	0	0	0	0	0	0	0	0	0	0	40	50	90	0	30	0	20	Plant response rating, Oat, Wild (wild oat (Avena fatua); [8]): 40; Plant response rating, Nutsedge, Yellow [1, 8]: 0; Plant response rating, Wheat [2, 8]: 0; Wheat plant response rating ([2]; 8 g ai/ha): 0; Plant response rating, Barnyardgrass [5, 11]: 0; Plant response rating, Barnyardgrass [5, 12]: 70; Plant response rating, Barnyardgrass [5, 13]: 10; Plant response rating, Barnyardgrass [5, 14]: 100; Plant response rating, Foxtail, Giant [6, 11]: 0; Plant response rating, Foxtail, Giant [6, 12]: 60; Plant response rating, Foxtail, Giant [6, 13]: 70; Plant response rating, Foxtail, Giant [6, 14]: 90; Plant response rating, Velvetleaf [7, 11]: 0; Plant response rating, Velvetleaf [7, 12]: 0; Plant response rating, Velvetleaf [7, 13]: 0; Plant response rating, Velvetleaf [7, 14]: 0
Cc1cc(-c2ccc(Cl)cc2)nn1-c1c(OS(=O)(=O)c2ccc(Cl)s2)cnn(C)c1=O [Compound 55]	35	70	0	0	0	0	0	5	0	0	0	0	10	60	20	80	0	40	0	40	Oat, Wild plant response rating (wild oat (Avena fatua); 16 g ai/ha, scale 0 to 100): 0; Nutsedge, Yellow plant response rating ([1]; 16 g ai/ha, scale 0 to 100): 0; Wheat plant response rating ([2]; 16 g ai/ha): 0; Plant response rating, Barnyardgrass [5, 11]: 0; Plant response rating, Barnyardgrass [5, 12]: 30; Plant response rating, Barnyardgrass [5, 13]: 0; Plant response rating, Barnyardgrass [5, 14]: 80; Plant response rating, Foxtail, Giant [6, 11]: 20; Plant response rating, Foxtail, Giant [6, 12]: 70; Plant response rating, Foxtail, Giant [6, 13]: 80; Plant response rating, Foxtail, Giant [6, 14]: 90; Plant response rating, Velvetleaf [7, 11]: 0; Plant response rating, Velvetleaf [7, 12]: 0; Plant response rating, Velvetleaf [7, 13]: 0; Plant response rating, Velvetleaf [7, 14]: 0
